Data taken from US20250032525A1 (priority 2021, published 2025).
Read-outs that look alike come from different tables or passages of the source.

Legend:
[1] = system: patient-derived lung adenocarcinoma xenografts; experiment: Patient-derived xenograft (PDX) model; type: in vivo, NSG mice; settings: single treatment; LiPyDau 0.5 mg/kg, DOX 2 mg/kg, paclitaxel 12 mg/kg; 7 days
Excerpt: A piece from the tumor tissue was transplanted subcutaneously into the right flank and propagated in NOD.Cg-Prkdc^scid Il2rg^tm1Wjl/SzJ (NSG) mice for 7 months. After the xenografted tumor reached 1000 mm^3, tumor pieces were retransplanted subcutaneously into the right flank of 20 additional NSG mice, which were given a single treatment with various chemotherapeutics or LiPyDau. Every treatment group consists of 5 animals. After daily monitoring of the tumor volume for one week, the mice were sacrificed and the cytotoxicity of the treatments was investigated on tissue slices by image analysis.
For treatment, tumor pieces were engrafted subcutaneously.

A431-B1 = experiment: In vitro cytotoxicity; type: cell-based
Excerpt: (§1) Experiments were repeated at least 3 times.

A431-G2 = experiment: In vitro cytotoxicity; type: cell-based
Excerpt: as §1

A431 = experiment: In vitro cytotoxicity; type: cell-based
Excerpt: as §1

MES-SA/Dx5 = experiment: In vitro cytotoxicity; type: cell-based; settings: MES-SA/Dx5; read-out: IC50
Excerpt: as §1

MES-SA = experiment: In vitro cytotoxicity; type: cell-based; settings: read-out: IC50
Excerpt: as §1

P388/ADR = experiment: In vitro cytotoxicity; type: cell-based; settings: read-out: IC50
Excerpt: as §1

P388 = experiment: In vitro cytotoxicity; type: cell-based
Excerpt: as §1

[2] = system: Lewis Lung Carcinoma (LLC) tumor; experiment: Mouse Lewis lung carcinoma (LLC) model; type: in vivo, C57BL/6 mice; settings: single intravenous dose; cisplatin 5 mg/kg, LiPyDau 1 mg/kg
Method: FIG. 6. Anti-tumor effect of LiPyDau and cisplatin in the mouse Lewis lung cancer (LLC) lung carcinoma model. C57BL/6 mice received sc. injection of 2×10^5 LLC cells in 100 μl PBS. When the tumors were palpable, mice were randomized to receive a single intravenous dose of cisplatin (5 mg/kg) or LiPyDau (1 mg/kg) as indicated by the arrow. Control mice were treated with saline.
Mouse melanoma (B16), lung (Lewis lung carcinoma, LLC) and breast (4T1-LUC) cancer cell lines were used to establish allograft tumors for drug testing. 5×10^5 B16 or 2×10^5 LLC cells were inoculated subcutaneously in 200 μl serum-free culture media. 4T1-LUC tumors were established by injecting 1×10^6 cells in 20 μl serum-free culture media through the nipple directly to the breast tissue of 8 weeks old BALB/c mice on day 0). […] For the B16, LLC and 4T1-LUC tumor models 4, 6 and 6 mice were treated with LiPyDau while 4, 3 and 6 animals were in the saline treated groups, respectively.

[3] = Nagy et al.; cited from earlier work
[4] = system: Dunning R-3327-H prostate carcinoma; settings: cited from earlier work
[5] = system: nitrosamine-induced pancreatic cancers; settings: intraperitoneal, total dose of 100 nmol/kg; cited from earlier work
NCI-60 cell lines = experiment: NCI DTP NCI-60 cell line screen database (sulforhodamine B), panel; type: cell-based; settings: Homo sapiens
MALME-3M = settings: NCI-60 database, sulforhodamine B, read-out: Cytotoxic IC50; cited from earlier work
SK-MEL-28 = settings: SK-MEL-28, NCI-60 database, sulforhodamine B; read-out: Cytotoxic IC50; cited from earlier work
SK-MEL-2 = settings: SK-MEL-2, NCI-60 database, sulforhodamine B; read-out: Cytotoxic IC50; cited from earlier work
HT29 = settings: HT29, NCI-60 database, sulforhodamine B; read-out: Cytotoxic IC50; cited from earlier work
HCT-15 = settings: HCT-15, NCI-60 database, sulforhodamine B; read-out: Cytotoxic IC50; cited from earlier work
COLO 205 = settings: COLO 205, NCI-60 database, sulforhodamine B; read-out: Cytotoxic IC50; cited from earlier work
HCC-2998 = settings: HCC-2998, NCI-60 database, sulforhodamine B; read-out: Cytotoxic IC50; cited from earlier work
HCT-116 = settings: HCT-116, NCI-60 database, sulforhodamine B; read-out: Cytotoxic IC50; cited from earlier work
KM12 = settings: KM12, NCI-60 database, sulforhodamine B; read-out: Cytotoxic IC50; cited from earlier work
SW-620 = settings: SW-620, NCI-60 database, sulforhodamine B; read-out: Cytotoxic IC50; cited from earlier work
EKVX = settings: NCI-60 database, sulforhodamine B, read-out: Cytotoxic IC50; cited from earlier work
HOP-62 = settings: HOP-62, NCI-60 database, sulforhodamine B; read-out: Cytotoxic IC50; cited from earlier work
NCI-H226 = settings: NCI-H226, NCI-60 database, sulforhodamine B; read-out: Cytotoxic IC50; cited from earlier work
PC-3 = settings: PC-3, NCI-60 database, sulforhodamine B; read-out: Cytotoxic IC50; cited from earlier work
DU-145 = settings: DU-145, NCI-60 database, sulforhodamine B; read-out: Cytotoxic IC50; cited from earlier work
HL-60(TB) = settings: NCI-60 database, sulforhodamine B, read-out: Cytotoxic IC50; cited from earlier work
CCRF-CEM = settings: NCI-60 database, sulforhodamine B, read-out: Cytotoxic IC50; cited from earlier work
OVCAR-3 = settings: OVCAR-3, NCI-60 database, sulforhodamine B; read-out: Cytotoxic IC50; cited from earlier work
OVCAR-5 = settings: OVCAR-5, NCI-60 database, sulforhodamine B; read-out: Cytotoxic IC50; cited from earlier work
OVCAR-8 = settings: OVCAR-8, NCI-60 database, sulforhodamine B; read-out: Cytotoxic IC50; cited from earlier work
NCI/ADR-RES = settings: NCI-60 database, sulforhodamine B, read-out: Cytotoxic IC50; cited from earlier work
UO-31 = settings: UO-31, NCI-60 database, sulforhodamine B; read-out: Cytotoxic IC50; cited from earlier work
A498 = settings: A498, NCI-60 database, sulforhodamine B; read-out: Cytotoxic IC50; cited from earlier work
CAKI-1 = settings: CAKI-1, NCI-60 database, sulforhodamine B; read-out: Cytotoxic IC50; cited from earlier work
RXF 393 = settings: RXF 393, NCI-60 database, sulforhodamine B; read-out: Cytotoxic IC50; cited from earlier work
MDA-MB-231 = settings: MDA-MB-231, NCI-60 database, sulforhodamine B; read-out: Cytotoxic IC50; cited from earlier work
MCF7 = settings: MCF7, NCI-60 database, sulforhodamine B; read-out: Cytotoxic IC50; cited from earlier work
T-47D = settings: NCI-60 database, sulforhodamine B, read-out: Cytotoxic IC50; cited from earlier work
MDA-MB-435 = settings: MDA-MB-435, NCI-60 database, sulforhodamine B; read-out: Cytotoxic IC50; cited from earlier work
HS 578T = settings: NCI-60 database, sulforhodamine B, read-out: Cytotoxic IC50; cited from earlier work
BT-549 = settings: BT-549, NCI-60 database, sulforhodamine B; read-out: Cytotoxic IC50; cited from earlier work
PANC-1 = settings: PANC-1, from Varbanov et al. (2017), PrestoBlue; read-out: Cytotoxic IC50; cited from earlier work

CC(=O)O[C@H]1C(=O)[C@@]2(C)[C@H]([C@H](OC(=O)c3ccccc3)[C@]3(O)C[C@H](OC(=O)[C@H](O)[C@@H](NC(=O)c4ccccc4)c4ccccc4)C(C)=C1C3(C)C)[C@]1(OC(C)=O)CO[C@@H]1C[C@@H]2O [paclitaxel]
Tumor growth [1]: failed to exert any effect on tumor growth

N.N.[Cl][Pt][Cl] [Cisplatin, cisplatin]
IC50 (A431-B1): 3950 nM
IC50 (A431-G2): 1950 nM
IC50 (A431): 3860 nM
IC50 (MES-SA/Dx5): 12500 nM
IC50 (MES-SA): 7580 nM
IC50 (P388/ADR): 1180 nM
IC50 (P388): 610 nM
Tumor growth [2]: did not have any measurable effect on tumor growth

COc1cccc2c1C(=O)c1c(O)c3c(c(O)c1C2=O)C[C@@](O)(C(=O)CO)C[C@@H]3O[C@H]1C[C@H](N2C=CCC2)[C@H](O)[C@H](C)O1 [PyDox, 2-pyrrolino-doxorubicin]
Potency in vitro relative to Dox [3]: 500-1000 times
Animals that died ([4]; 3×25 nmol/kg, rats): 6 of 10
Change in the number of mitotic or apoptotic cells ([4]; after treatment in rats): no significant change in the number of mitotic or apoptotic cells
Mortality ([4]; dose of 50 nmol/kg, rats): death of all rats
Hamsters that died [5]: 16 of 18

COc1cccc2c1C(=O)c1c(O)c3c(c(O)c1C2=O)C[C@@](O)(C(C)=O)C[C@@H]3O[C@H]1C[C@H](N)[C@H](O)[C@H](C)O1 [Dau, daunorubicin]
IC50 (NCI-60 cell lines; read-out: Cytotoxic IC50, av. breast): 112 nM
IC50 (NCI-60 cell lines; read-out: Cytotoxic IC50, av. colorectal): 145 nM
IC50 (NCI-60 cell lines; read-out: Cytotoxic IC50, av. leukaemia): 27 nM
IC50 (NCI-60 cell lines; read-out: Cytotoxic IC50, av. lung): 157 nM
IC50 (NCI-60 cell lines; read-out: Cytotoxic IC50, av. melanoma): 113 nM
IC50 (NCI-60 cell lines; read-out: Cytotoxic IC50, av. ovarian): 388 nM
IC50 (NCI-60 cell lines; read-out: Cytotoxic IC50, av. prostatic): 92.2 nM
IC50 (NCI-60 cell lines; read-out: Cytotoxic IC50, av. renal): 158 nM
IC50 (MALME-3M): 49.7 nM
IC50 (SK-MEL-28): 132 nM
IC50 (SK-MEL-2): 158 nM
IC50 (HT29): 50.7 nM
IC50 (HCT-15): 650 nM
IC50 (COLO 205): 52.5 nM
IC50 (HCC-2998): 99.3 nM
IC50 (HCT-116): 28.6 nM
IC50 (KM12): 95.9 nM
IC50 (SW-620): 35.5 nM
IC50 (EKVX): 360 nM
IC50 (HOP-62): 53 nM
IC50 (NCI-H226): 46.5 nM
IC50 (PC-3): 108 nM
IC50 (DU-145): 76.7 nM
IC50 (HL-60(TB)): 31.2 nM
IC50 (CCRF-CEM): 22.8 nM
IC50 (OVCAR-3): 124 nM
IC50 (OVCAR-5): 155 nM
IC50 (OVCAR-8): 41.6 nM
IC50 (NCI/ADR-RES): 1230 nM
IC50 (UO-31): 175 nM
IC50 (A498): 137 nM
IC50 (CAKI-1): 229 nM
IC50 (RXF 393): 92.5 nM
IC50 (MDA-MB-231): 201 nM
IC50 (MCF7): 19.5 nM
IC50 (T-47D): 40.8 nM
IC50 (MDA-MB-435): 137 nM
IC50 (HS 578T): 120 nM
IC50 (BT-549): 153 nM
IC50 (PANC-1): 260 nM
